Source: paper PMC11695783 (Frontiers in Pharmacology, 2024)
Where “and” joins values, the source holds several entries; their conditions need not be identical. Identical values can stand only once.

Assay: Pharmacokinetic studies in mice (intravenous and intramuscular, plasma, HPLC-MS/MS)
Format: in vivo, BALB/c mice
Design: AUClast / AUCall / AUCINF_obs / AUCINF_pred / AUCINFobs: concentration or dose not given beside the values; Tlast / Clast / AUMClast / AUMCINF_obs / AUMCINF_pred / Lambda_z / HL_Lambda_z / Cl_obs / Cl_pred / Cl_F_obs / Tlag / Cl_F_pred: unit not given here
Conditions: for plasma concentration, AV: average of mice; for plasma concentration: individual mice 1-8
Method: Pharmacokinetic experimental procedures of compound 16C were measured according to previous reports with some modifications ([Wang et al., 2022]). In brief, BALB/c mice were divided into two groups of eight mice each; one group was injected intravenously and the other was injected intramuscularly with compound 16C at a dose of 10 mg/kg. The dose was based on previous studies of novel pleuromutilin derivatives ([Jin et al., 2019]; [Wang et al., 2022]). Meanwhile, the dose of tiamulin approved by the European Union for intramuscular administration is 10–20 mg/kg ([EMA, 1999]). The volume of the injection was 0.1 mL/10 g. The compound 16C formulation was a filtered solution in 5% DMSO, 5% Tween-80, and 90% normal saline. Blood was obtained from eight mice via the ocular venous plexus at 0.083, 0.167, 0.25, 0.334, 0.5, 0.75, 1, 1.5, 2, 3, 4, 6, 8, and 12 h following tail intravenous or thigh Intramuscular injection. A glass capillary with a diameter of 0.3 mm was inserted into the outer canthus of the mouse, and 200 μL blood was collected using a 1.5 mL anticoagulant centrifuge tube. The blood was centrifuged at 3,000 rpm for 10 min to obtain plasma. 100 μL of plasma was aspirated for drug concentration detection, and eight parallel samples from different mice were obtained at each time point.
All pharmacokinetic experimental samples and method validation samples were added with 4 times the volume of acetonitrile and shaken for 1 min, centrifuged at high speed at 13,000× g for 10 min, and the supernatants were taken and filtered to detect the drug concentration. Some samples with high concentrations were diluted to the linear range prior to analysis.
The extracted samples were analyzed using a high-performance liquid chromatography-tandem mass spectrometry (HPLC-MS/MS) system (Agilent, Santa Clara, CA, United States) 1200 HPLC and Applied Biosystems (Waltham, MA, United States) API 4000 mass spectrometer). HPLC-MS/MS analysis using a Zorbax Eclipse XDB-C18 (4.6 × 50 mm, 3.5 μm) column (Agilent). The mobile phase A (acetonitrile) and B (water) were applied as a gradient as follows: 0–3 min: 15%–95% A and maintain from 3 min to 5 min at 95% A. 5–5.1 min: 95%–15% A and maintain from 5.1 to 10 min at 15% A. Flow rate: 500 μL/min; column temperature: 30°C and injection volume: 4 μL. The electrospray ionization (ESI) source of the mass spectrometer was operated in […], with the following ion source parameters: ion spray voltage 4,500 V, collision gas 7 psi, ion source gas 1 55 psi, ion source gas 2 40 psi, curtain gas 20 psi, source temperature 600°C. The precursor ion m/z of Compound 16C was 633.3, and the product ions m/z were 272.0 (quantifier) 286.9 and 313.0. Declustering potentials (DP) were 140, 140, and 144 V, respectively; entrance potential (EP) was 10 V; collision energy (CE) was 55, 46, and 15 V, respectively; and collision cell exit potential (CXP) was 14 V.
[…] Pharmacokinetic parameters include time to maximum concentration (Tmax), maximum concentration (Cmax), the area under the plasma concentration–time curve (AUC0-∞), clearance rate (CL), the apparent volume of distribution (Vd), bioavailability (F), elimination half-life (T1/2kel) and absorption half-life (T1/2ka).

In the case of `C=C[C@]1(C)C[C@@H](OC(=O)CSc2ccc(NC(=O)Cc3ccc([N+](=O)[O-])cc3)cc2)[C@]2(C)[C@H](C)CC[C@]3(CCC(=O)[C@H]32)[C@@H](C)[C@@H]1O`, the “plasma concentration, AV” value (IM, 0.083h) is reported as 409.1 ng/mL, the “plasma concentration, AV” value (IM, 0.17h) is reported as 470.8 ng/mL and the “plasma concentration, AV” value (IM, 0.25h) is reported as 496 ng/mL. For the same molecule, the “plasma concentration, AV” value (IM, 0.33h) was 490 ng/mL, the “plasma concentration, AV” value (IM, 0.5h) was 449.1 ng/mL and the “plasma concentration, AV” value (IM, 0.75h) was 404.2 ng/mL. For the same molecule, the “plasma concentration, AV” value (IM, 1h) was 281.2 ng/mL, the “plasma concentration, AV” value (IM, 1.5h) was 246.4 ng/mL and the plasma concentration (IM, 1.5h) was 189 ng/mL and 266 ng/mL and 253 ng/mL and 291 ng/mL and 290 ng/mL and 328 ng/mL and 158 ng/mL and 196 ng/mL. For the same molecule, the “plasma concentration, AV” value (IM, 2h) was 158.4 ng/mL, the plasma concentration (IM, 2h) was 100 ng/mL and 171 ng/mL and 124 ng/mL and 153 ng/mL and 195 ng/mL and 254 ng/mL and 139 ng/mL and 131 ng/mL and the “plasma concentration, AV” value (IM, 3h) was 123.2 ng/mL. For the same molecule, the plasma concentration (IM, 3h) was 92.5 ng/mL and 183 ng/mL and 129 ng/mL and 115 ng/mL and 122 ng/mL and 146 ng/mL and 111 ng/mL and 87 ng/mL, the “plasma concentration, AV” value (IM, 4h) was 84.54 ng/mL and the plasma concentration (IM, 4h) was 67.6 ng/mL and 99.6 ng/mL and 79.9 ng/mL and 104 ng/mL and 84.5 ng/mL and 117 ng/mL and 51.6 ng/mL and 72.1 ng/mL. For the same molecule, the “plasma concentration, AV” value (IM, 6h) was 37.03 ng/mL, the plasma concentration (IM, 6h) was 27 ng/mL and 51.8 ng/mL and 31.4 ng/mL and 43.1 ng/mL and 35.8 ng/mL and 43.3 ng/mL and 20 ng/mL and 43.8 ng/mL and the “plasma concentration, AV” value (IM, 8h) was 18.45 ng/mL. For the same molecule, the plasma concentration (IM, 8h) was 13.1 ng/mL and 25.3 ng/mL and 16.7 ng/mL and 19.2 ng/mL and 15 ng/mL and 22.7 ng/mL and 13 ng/mL and 22.6 ng/mL, the “plasma concentration, AV” value (IM, 12h) was 6.302 ng/mL and the plasma concentration (IM, 12h) was 1.85 ng/mL and 6.51 ng/mL and 5.87 ng/mL and 6.37 ng/mL and 4.83 ng/mL and 6.04 ng/mL and 9.7 ng/mL and 9.25 ng/mL. For the same molecule, the AUCINF_obs (IM, individual mice) was 1087.9 and 805.258 and 1373.07 and 1092.7 and 1076.67 and 1204.87 and 1450.76 and 1023.1, the AUCINF_pred (IM, individual mice) was 1087.68 and 805.26 and 1373.07 and 1092.68 and 1076.58 and 1204.84 and 1450.76 and 1021.5 and the AUC_%Extrap_obs (IM, individual mice) was 3.4748% and 0.4887% and 1.3883% and 1.9994% and 1.9823% and 1.3449% and 1.2619% and 9.501%. The AUC_%Extrap_pred (IM, individual mice) was 3.4549% and 0.489% and 1.388% and 1.9971% and 1.9741% and 1.3423% and 1.262% and 9.3589%, the AUCall (IM, individual mice) was 1050.1 and 801.322 and 1354.01 and 1070.85 and 1055.33 and 1188.66 and 1432.45 and 925.896 and the AUClast (IM, individual mice) was 1050.1 and 801.322 and 1354.01 and 1070.85 and 1055.33 and 1188.66 and 1432.45 and 925.896. For the same molecule, the AUMCINF_obs (IM, individual mice) was 3193.81 and 1900.71 and 3591.01 and 2771.66 and 3099.57 and 2821.33 and 3581.57 and 4169.2, the AUMCINF_pred (IM, individual mice) was 3190.21 and 1900.74 and 3590.96 and 2771.26 and 3098.18 and 2820.84 and 3581.6 and 4133.86 and the AUMC_%Extrap_obs (IM, individual mice) was 19.0405% and 2.9249% and 7.9241% and 12.3927% and 10.57% and 8.8194% and 7.6827% and 51.3426%. For the same molecule, the AUMC_%Extrap_pred (IM, individual mice) was 18.949% and 2.9266% and 7.9228% and 12.3802% and 10.53% and 8.8035% and 7.6834% and 50.9267%, the AUMClast (IM, individual mice) was 2585.7 and 1845.12 and 3306.46 and 2428.17 and 2771.94 and 2572.51 and 3306.41 and 2028.62 and the Cl_F_obs (IM, individual mice) was 9192.03 and 0.0124 and 0.0073 and 0.0092 and 0.0093 and 0.0083 and 0.0069. For the same molecule, the Cl_F_pred (IM, individual mice) was 0.0124 and 0.0073 and 0.0092 and 0.0093 and 0.0083 and 0.0069, the Clast (IM, individual mice) was 9.25 and 1.85 and 6.51 and 5.87 and 6.37 and 4.83 and 6.04 and 9.7 and the Cmax (IM, individual mice) was 520 and 469 and 730 and 550 and 410 and 609 and 667 and 531. For the same molecule, the HL_Lambda_z (IM, individual mice) was 2.8327 and 1.4744 and 2.0296 and 2.5798 and 2.3224 and 2.3255 and 2.1008 and 6.9461, the Tlag (IM, individual mice) was 0 and the Tlast (IM, individual mice) was 12. The Lambda_z (IM, individual mice, non-compartmental analysis) was 0.2447 and 0.4701 and 0.3415 and 0.2687 and 0.2985 and 0.2981 and 0.3299 and 0.0998, the MRTINF_obs (IM, individual mice, in h) was 2.9358 and 2.3604 and 2.6153 and 2.5365 and 2.8788 and 2.3416 and 2.4688 and 4.0751 and the MRTINF_pred (IM, individual mice, in h) was 2.9331 and 2.3604 and 2.6153 and 2.5362 and 2.8778 and 2.3413 and 2.4688 and 4.0469. For the same molecule, the MRTlast (IM, individual mice, in h) was 2.4623 and 2.3026 and 2.442 and 2.2675 and 2.6266 and 2.1642 and 2.3082 and 2.191, the Tmax (IM, individual mice, in h) was 0.25 and 0.33 and 0.5 and 0.17 and 0.75 and the “plasma concentration, AV” value (IV, 0.083h) was 4.976 ng/mL.
